The text below walks through data of ChEMBL document CHEMBL1143875, “Synthesis and structure-activity relationships of thiadiazole-derivatives as potent and orally active peroxisome proliferator-activated receptors alpha/delta dual agonists” (Bioorg Med Chem, 2008).

Active and inactive are the calls of the source. No cut-off for these calls is given here. Where only a bound is given, the exact number is not on record here.

The nature of series [1]: Inhibition of cytochrome P450 in human liver microsome. In kind it is ADME, microsomes.
The nature of series [2]: Cmax in Sprague-Dawley rat at 0.3 mg/kg administered as multiple dose after 8 days. The settings on record: in vivo. The arrangement: dose 0.3 mg/kg. In kind it is ADME, organism-based.
Series [3] is described as follows: AUC in Sprague-Dawley rat at 3 mg/kg administered as single dose on day 8. In kind it is ADME, organism-based. Further details: dose 3 mg/kg. The settings on record: plasma.
A further series concerns Canis familiaris. In words: Effect on alanine aminotransferase level in Beagle dog serum at 0.3 to 3 mg/kg, po/day after 7 days. In kind it is functional, organism-based. The settings on record: Canis lupus familiaris.
Series [4] is described as follows: Half life in Beagle dog at 10 mg/kg administered as multiple dose after 7 days. In kind it is ADME, organism-based, Canis lupus familiaris. The arrangement: dose 10 mg/kg. The settings on record: in vivo.
Series [5] is described as follows: Half life in ob/ob C57BL/6J-leptin deficient obese mouse at 1 mg/kg administered as multiple dose after 11 days. In kind it is ADME, organism-based. The arrangement: dose 1 mg/kg. The settings on record: in vivo.
Series [6] is described as follows: Cmax in Beagle dog at 10 mg/kg administered as multiple dose after 7 days. In kind it is ADME, organism-based, Canis lupus familiaris. The arrangement: dose 10 mg/kg. The settings on record: in vivo.
Series [7] is described as follows: Half life in Beagle dog at 1 mg/kg administered as multiple dose after 7 days. In kind it is ADME, organism-based, Canis lupus familiaris. Further details: dose 1 mg/kg. The settings on record: in vivo.
Series [8] concerns the target T1, Bile acid receptor (Homo sapiens) (UniProt Q96RI1).
T1 sequence (whole entry): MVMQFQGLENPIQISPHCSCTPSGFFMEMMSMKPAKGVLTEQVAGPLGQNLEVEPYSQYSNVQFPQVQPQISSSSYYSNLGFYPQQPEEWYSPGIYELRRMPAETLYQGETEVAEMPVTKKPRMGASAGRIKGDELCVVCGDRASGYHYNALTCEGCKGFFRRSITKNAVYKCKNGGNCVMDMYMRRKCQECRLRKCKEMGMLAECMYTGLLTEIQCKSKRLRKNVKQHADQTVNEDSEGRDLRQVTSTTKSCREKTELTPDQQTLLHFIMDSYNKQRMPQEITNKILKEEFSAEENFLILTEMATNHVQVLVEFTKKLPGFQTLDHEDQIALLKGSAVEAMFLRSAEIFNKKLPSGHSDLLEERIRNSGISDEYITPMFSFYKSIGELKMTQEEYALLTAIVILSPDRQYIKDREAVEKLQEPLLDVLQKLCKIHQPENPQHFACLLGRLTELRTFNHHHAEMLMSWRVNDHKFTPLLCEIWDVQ
In words: Activity at farnesoid X receptor.

A short description of series [9]: AUC in ob/ob C57BL/6J-leptin deficient obese mouse at 0.3 mg/kg administered as multiple dose after 11 days. In kind it is ADME, organism-based. The arrangement: dose 0.3 mg/kg. The settings on record: plasma.
A further series relates to Rattus norvegicus. In words: Decrease in total cholesterol level in hypercholesterolemic Sprague-Dawley rat serum at 0.1 to 1 mg/kg, po after 8 days. In kind it is functional. The settings on record: dose mg/kg 0.1-1.
Series [10] is described as follows: Half life in Beagle dog at 0.3 mg/kg administered as multiple dose after 7 days. Further details: dose 0.3 mg/kg. The settings on record: in vivo. In kind it is ADME, organism-based, Canis lupus familiaris.
Series [11] is described as follows: Induction of Pa9 gene expression in human skeletal muscle cells at 1000 nM by RT-PCR. In kind it is functional.

For the molecule `Cc1cc(SCc2nc(-c3ccc(Cl)c(Cl)c3)ns2)ccc1OC(C)(C)C(=O)O`, the IC50 in [1] is more than 30 µM. For the same molecule, the results for the peak concentration (Cmax) in series [2] and in series [6] were 231 ng/mL and 10100 ng/mL, respectively. The same molecule came in with an AUC in series [3] of 24200 ng·h/mL. In addition, the outcome (with Canis familiaris; in series [8]) was inactive. Also, the half-life was 6.2 h in series [4], 5.2 h in [5], 4.7 h in [7] and 6.5 h in [10]. In series [9], the AUC at 264 h turned out to be 10600 ng·h/mL. The same molecule displayed an Activity with Rattus norvegicus of 263 mg/dL. For the same molecule, the Fold change in series [11] came to 15.
